Assay results as given in US10316017B2, “COT modulators and methods of use thereof” (Gilead Sciences, Inc., priority 2015, dated 2019).

Assays:
[1] = tested on: TNFα production in LPS-stimulated human monocytes; assay: Cot Monocyte TNFα Cell Based Assay; details: Homo sapiens, Monocyte, TNFα in LPS-stimulated human monocytes; read-out: EC50 TNF
In short: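 TR-FRET read-out of total secreted TNFα, normalized as % control (unstimulated = 0%, LPS-stimulated = 100%). Cells (5,000/well) were exposed to compound 1 h at 37 °C, then to 50 pg/ml LPS for a further 4 h.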

[2] = biological target: T1, human Cot catalytic domain (30-397 amino acids) (Homo sapiens, UniProt P41279); assay: High Throughput Cot Biochemical Assay (KinEASE TR-FRET); details: Cot biochemical HTRF (KinEASE TR-FRET) assay; read-out: IC50 HTRF
T1 construct: Purified recombinant human Cot catalytic domain (30-397 amino acids) was purchased from Cama Biosciences; purchased Cama Biosciences (so in the source)
T1 sequence (P41279 30-397): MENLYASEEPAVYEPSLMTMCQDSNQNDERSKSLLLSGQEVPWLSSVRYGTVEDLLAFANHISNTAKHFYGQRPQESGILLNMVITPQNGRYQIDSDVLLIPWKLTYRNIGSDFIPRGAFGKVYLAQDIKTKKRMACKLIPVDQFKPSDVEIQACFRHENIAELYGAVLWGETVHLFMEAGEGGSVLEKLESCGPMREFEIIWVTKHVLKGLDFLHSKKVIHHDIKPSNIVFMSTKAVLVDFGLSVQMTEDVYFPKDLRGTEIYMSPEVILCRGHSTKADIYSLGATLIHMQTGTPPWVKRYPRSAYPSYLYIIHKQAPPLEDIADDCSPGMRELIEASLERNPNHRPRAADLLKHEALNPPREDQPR
In short: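 TR-FRET readout: Eu-labeled phospho-specific antibody binds XL665-tagged STK3 peptide after phosphorylation by Cot (aa 30-397, 5 nM). Conditions: 400 μM ATP, 1 μM peptide, MOPS pH 7.0 buffer with MgOAc, DTT, BSA, NP-40, glycerol; 0.1% DMSO.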

Row | EC50 [1] [nM] | IC50 [2] [nM] | Structure (SMILES)
1 | 597 | 11 | CC(C)(C)N1CCC(n2cc([C@@H](Nc3cc(Cl)c4ncc(C#N)c(Nc5ccc(Cl)c(Cl)c5F)c4c3)c3ccccc3)nn2)CC1 [Example 781, (S)-6-(((1-(1-(tert-butyl)piperidin-4-yl)-1H-1,2,3-triazol-4-yl)(phenyl)methyl)amino)-8-chloro-4-((3,4-dichloro-2-fluorophenyl)amino)quinoline-3-carbonitrile]
2 | 1990 | 249 | N#Cc1cnc2c(Cl)cc(NC(c3ccc(F)cc3)c3csnn3)cc2c1Nc1ccc(F)c(Cl)c1 (stereo not drawn) [Example 784, 8-chloro-4-((3-chloro-4-fluorophenyl)amino)-6-(((4-fluorophenyl)(1,2,3-thiadiazol-4-yl)methyl)amino)quinoline-3-carbonitrile]
3 | 6630 | 173 | CC(C)(C)N1CCC(n2cc([C@@H](Nc3cc(Cl)c4ncc(C#N)c(Nc5ccc(OCc6ccccn6)c(Cl)c5)c4c3)c3ccccc3)nn2)CC1 [Example 786, (S)-6-(((1-(1-(tert-butyl)piperidin-4-yl)-1H-1,2,3-triazol-4-yl)(phenyl)methyl)amino)-8-chloro-4-((3-chloro-4-(pyridin-2-ylmethoxy)phenyl)amino)quinoline-3-carbonitrile]
4 | 362 | 11 | CC(C)(C)N1CCC(n2cc([C@@H](Nc3cc(Cl)c4ncc(C#N)c(Nc5ccc(F)c(F)c5)c4c3)c3ccccc3)nn2)CC1 [Example 787, (S)-6-(((1-(1-(tert-butyl)piperidin-4-yl)-1H-1,2,3-triazol-4-yl)(phenyl)methyl)amino)-8-chloro-4-((3,4-difluorophenyl)amino)quinoline-3-carbonitrile]
5 | 305 | 4 | CC1(C)CC(n2cc([C@@H](Nc3cc(Cl)c4ncc(C#N)c(Nc5ccc(F)c(Cl)c5)c4c3)c3ccccc3)nn2)CCN1 (stereo partly drawn) [Example 790, 8-chloro-4-((3-chloro-4-fluorophenyl)amino)-6-(((1S)-(1-(2,2-dimethylpiperidin-4-yl)-1H-1,2,3-triazo1-4-yl)(phenyl)methyl)amino) quinoline-3-carbonitrile]
6 | 50 | 3 | CCN1CCC(n2cc([C@@H](Nc3cc(F)c4ncc(C#N)c(Nc5ccc(F)c(Cl)c5)c4c3)c3ccccc3)nn2)CC1 [Example 791, (S)-4-((3-chloro-4-fluorophenyl)amino)-6-(((1-(1-ethylpiperidin-4-yl)-1H-1,2,3-triazol-4-yl)(phenyl)methyl)amino)-8-fluoroquinoline-3-carbonitrile]
7 | 91 | 5 | CCN1CCC(n2cc([C@H](c3ccccc3)N(CC)c3cc(Cl)c4ncc(C#N)c(Nc5ccc(F)c(Cl)c5)c4c3)nn2)CC1 [Example 792, (S)-8-chloro-4-((3-chloro-4-fluorophenyl)amino)-6-(ethyl((1-(1-ethylpiperidin-4-yl)-1H-1,2,3-triazol-4-yl)(phenyl)methyl)amino) quinoline-3-carbonitrile]
8 | 209 | 7 | CN(C)CCn1cc([C@@H](Nc2cc(Cl)c3ncc(C#N)c(Nc4ccc(F)c(Cl)c4)c3c2)c2ccccc2)nn1 [Example 793, (S)-8-chloro-4-((3-chloro-4-fluorophenyl)amino)-6-(((1-(2-(dimethylamino)ethyl)-1H-1,2,3-triazol-4-yl)(phenyl)methyl)amino) quinoline-3-carbonitrile]
9 | 441 | 4 | N#Cc1cnc2c(F)cc(N[C@@H](c3ccccc3)c3cn(C4CCNCC4)nn3)cc2c1Nc1ccc(F)c(Cl)c1 [Example 794, (S)-4-((3-chloro-4-fluorophenyl)amino)-8-fluoro-6-((phenyl(1-(piperidin-4-yl)-1H-1,2,3-triazol-4-yl)methyl)amino)quinoline-3-carbonitrile]
10 | 314 | 13 | COCCn1cc([C@@H](Nc2cc(Cl)c3ncc(C#N)c(Nc4ccc(F)c(Cl)c4)c3c2)c2ccccc2)nn1 [Example 795, (S)-8-chloro-4-((3-chloro-4-fluorophenyl)amino)-6-(((1-(2-methoxyethyl)-1H-1,2,3-triazol-4-yl)(phenyl)methyl)amino)quinoline-3-carbonitrile]
11 | 200 | 2 | N#Cc1cnc2c(Cl)cc(N[C@@H](c3ccccc3)c3cn(CCN)nn3)cc2c1Nc1ccc(F)c(Cl)c1 [Example 796, (S)-6-(((1-(2-aminoethyl)-1H-1,2,3-triazol-4-yl)(phenyl)methyl)amino)-8-chloro-4-((3-chloro-4-fluorophenyl)amino)quinoline-3-carbonitrile]
12 | 107 | 3 | CN(C)CCCn1cc([C@@H](Nc2cc(Cl)c3ncc(C#N)c(Nc4ccc(F)c(Cl)c4)c3c2)c2ccccc2)nn1 [Example 797, (S)-8-chloro-4-((3-chloro-4-fluorophenyl)amino)-6-(((1-(3-(dimethylamino)propyl)-1H-1,2,3-triazol-4-yl)(phenyl)methyl)amino) quinoline-3-carbonitrile]
13 | 963 | 78 | N#Cc1cnc2c(Cl)cc(N[C@@H](c3ccc(Cl)cc3)c3cn(C4CCN(C5COC5)CC4)nn3)cc2c1Nc1ccc(F)c(Cl)c1 [Example 802, (S)-8-chloro-4-((3-chloro-4-fluorophenyl)amino)-6-(((4-chlorophenyl)(1-(1-(oxetan-3-yl)piperidin-4-yl)-1H-1,2,3-triazol-4-yl)methyl)amino)quinoline-3-carbonitrile]
14 | 206 | 7 | CC(C)(C)N1CCC(n2cc([C@@H](Nc3cc(Cl)c4ncc(C#N)c(Nc5ccc(F)c(Cl)c5)c4c3)c3ccc(Cl)cc3)nn2)CC1 [Example 803, (S)-6-(((1-(1-(tert-butyl)piperidin-4-yl)-1H-1,2,3-triazol-4-yl)(4-chlorophenyl)methyl)amino)-8-chloro-4-((3-chloro-4-fluorophenyl)amino)quinoline-3-carbonitrile]
15 | > 1000 | 588 | Cc1nonc1C(Nc1cc(Cl)c2ncc(C#N)c(Nc3ccc(F)c(Cl)c3)c2c1)c1ccc(F)cc1 (stereo not drawn) [Example 805, 8-chloro-4-((3-chloro-4-fluorophenyl)amino)-6-(((4-fluorophenyl)(4-methyl-1,2,5-oxadiazol-3-yl)methyl)amino)quinoline-3-carbonitrile]
16 | > 50000 | 850 | N#Cc1cnc2c(Cl)cc(NC(c3ccc(F)cc3)c3cscn3)cc2c1Nc1ccc(F)c(Cl)c1 (stereo not drawn) [Example 806, 8-chloro-4-((3-chloro-4-fluorophenyl)amino)-6-(((4-fluorophenyl)(thiazol-4-yl)methyl)amino)quinoline-3-carbonitrile]
17 | 434 | 26 | CC1(Cn2cc([C@@H](Nc3cc(Cl)c4ncc(C#N)c(Nc5ccc(F)c(Cl)c5)c4c3)c3ccc(F)cc3)nn2)COC1 [Example 808, (S)-8-chloro-4-((3-chloro-4-fluorophenyl)amino)-6-(((4-fluorophenyl)(1-((3-methyloxetan-3-yl)methyl)-1H-1,2,3-triazol-4-yl)methyl)amino)quinoline-3-carbonitrile]
18 | 116 | 6 | CCN1CCC(n2cc([C@@H](Nc3cc(F)c4ncc(C#N)c(Nc5ccc(F)c(Cl)c5)c4c3)c3ccc(Cl)cc3)nn2)CC1 [Example 813, (S)-4-((3-chloro-4-fluorophenyl)amino)-6-(((4-chlorophenyl)(1-(1-ethylpiperidin-4-yl)-1H-1,2,3-triazol-4-yl)methyl)amino)-8-fluoroquinoline-3-carbonitrile]
